Several values for one entry are separate records, joined by “and”; a condition that tells them apart may be missing. Equal entries are not always repeated. Inconclusive results and toxic doses are left out.
Test system: CD2F1 mice, L1210 leukemia ip, survival T/C
Assay: NCI In Vivo Anticancer Drug Screen. Data for tumor model L1210 Leukemia (intraperitoneal) in CD2F1 (CDF1) mice
Conditions: higher = longer survival
Outline: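 Implant tumor; dose compound or vehicle; measure endpoint in both groups; report treated divided by control.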

O=NN(CCCl)C(=O)NCCCl
T/C (endpoint: mean survival time, dose: 2.0 mg/kg/injection, schedule: Q01DX009 (ip), vehicle: other): 177 % of control and 293 % of control
T/C (endpoint: mean survival time, dose: 3.75 mg/kg/injection, schedule: Q01DX001 (ip), vehicle: distilled water + alcohol): 115 % of control
T/C (endpoint: mean survival time, dose: 3.75 mg/kg/injection, schedule: Q01DX001 (ip), vehicle: saline + alcohol): 114 % of control
T/C (endpoint: mean survival time, dose: 3.8 mg/kg/injection, schedule: Q01DX001 (ip), vehicle: Klucel (hydroxypropylcellulose) (HPC)): 150 % of control
T/C (endpoint: mean survival time, dose: 4.0 mg/kg/injection, schedule: Q01DX001 (ip), vehicle: saline + alcohol): 113 % of control and 115 % of control
T/C (endpoint: mean survival time, dose: 4.0 mg/kg/injection, schedule: Q01DX009 (ip), vehicle: other): 201 % of control and 255 % of control
T/C (endpoint: mean survival time, dose: 4.0 mg/kg/injection, schedule: Q04DX003 (ip), vehicle: saline + alcohol): 189 % of control
T/C (endpoint: mean survival time, dose: 5.0 mg/kg/injection, schedule: Q01DX001 (ip), vehicle: saline): 113 % of control
T/C (endpoint: mean survival time, dose: 6.25 mg/kg/injection, schedule: Q01DX001 (ip), vehicle: saline + alcohol): 119 % of control and 120 % of control
T/C (endpoint: mean survival time, dose: 7.5 mg/kg/injection, schedule: Q01DX001 (ip), vehicle: Klucel (hydroxypropylcellulose) (HPC)): 164 % of control
T/C (endpoint: mean survival time, dose: 7.5 mg/kg/injection, schedule: Q01DX001 (ip), vehicle: distilled water + alcohol): 123 % of control
T/C (endpoint: mean survival time, dose: 8.0 mg/kg/injection, schedule: Q01DX009 (ip), vehicle: other): 183 % of control
T/C (endpoint: mean survival time, dose: 8.0 mg/kg/injection, schedule: Q04DX003 (ip), vehicle: saline + alcohol): 230 % of control
T/C (endpoint: mean survival time, dose: 9.4 mg/kg/injection, schedule: Q01DX001 (ip), vehicle: saline + alcohol): 156 % of control and 197 % of control
T/C (endpoint: mean survival time, dose: 10.0 mg/kg/injection, schedule: Q01DX001 (ip), vehicle: DMSO): 158 % of control
T/C (endpoint: mean survival time, dose: 12.5 mg/kg/injection, schedule: Q01DX001 (ip), vehicle: saline + alcohol): 152 % of control and 188 % of control and 212 % of control
T/C (endpoint: mean survival time, dose: 14.0 mg/kg/injection, schedule: Q01DX001 (ip), vehicle: saline): 171 % of control
T/C (endpoint: mean survival time, dose: 14.0 mg/kg/injection, schedule: Q07DX003 (ip), vehicle: saline + alcohol): 330 % of control
T/C (endpoint: mean survival time, dose: 14.0 mg/kg/injection, schedule: Q11HX001 (ip), vehicle: saline): 171 % of control
T/C (endpoint: mean survival time, dose: 14.22 mg/kg/injection, schedule: Q01DX001 (ip), vehicle: saline + alcohol): 172 % of control
T/C (endpoint: mean survival time, dose: 15.0 mg/kg/injection, schedule: Q01DX001 (ip), vehicle: Klucel (hydroxypropylcellulose) (HPC)): 332 % of control
T/C (endpoint: mean survival time, dose: 15.0 mg/kg/injection, schedule: Q01DX001 (ip), vehicle: saline): 172 % of control and 248 % of control
T/C (endpoint: mean survival time, dose: 16.0 mg/kg/injection, schedule: Q01DX001 (ip), vehicle: other): 150 % of control
T/C (endpoint: mean survival time, dose: 16.0 mg/kg/injection, schedule: Q04DX003 (ip), vehicle: saline + alcohol): 273 % of control
T/C (endpoint: mean survival time, dose: 18.8 mg/kg/injection, schedule: Q01DX001 (ip), vehicle: saline + alcohol): 319 % of control
T/C (endpoint: mean survival time, dose: 20.0 mg/kg/injection, schedule: Q01DX001 (ip), vehicle: DMSO): 270 % of control
T/C (endpoint: mean survival time, dose: 20.0 mg/kg/injection, schedule: Q01DX001 (ip), vehicle: Klucel (hydroxypropylcellulose) (HPC)): 300 % of control
T/C (endpoint: mean survival time, dose: 20.0 mg/kg/injection, schedule: Q01DX001 (ip), vehicle: other): 169 % of control
T/C (endpoint: mean survival time, dose: 20.0 mg/kg/injection, schedule: Q11HX001 (ip), vehicle: saline): 198 % of control
T/C (endpoint: mean survival time, dose: 21.3 mg/kg/injection, schedule: Q01DX001 (ip), vehicle: saline + alcohol): 248 % of control
T/C (endpoint: mean survival time, dose: 25.0 mg/kg/injection, schedule: Q01DX001 (ip), vehicle: saline + alcohol): 335 % of control
T/C (endpoint: mean survival time, dose: 30.0 mg/kg/injection, schedule: Q01DX001 (ip), vehicle: distilled water + alcohol): 196 % of control
T/C (endpoint: mean survival time, dose: 30.0 mg/kg/injection, schedule: Q01DX001 (ip), vehicle: saline): 232 % of control
T/C (endpoint: mean survival time, dose: 30.0 mg/kg/injection, schedule: Q11HX001 (ip), vehicle: saline): 232 % of control
T/C (endpoint: mean survival time, dose: 32.0 mg/kg/injection, schedule: Q01DX001 (ip), vehicle: other): 246 % of control
T/C (endpoint: mean survival time, dose: 32.0 mg/kg/injection, schedule: Q01DX001 (ip), vehicle: saline): 287 % of control
T/C (endpoint: mean survival time, dose: 33.0 mg/kg/injection, schedule: Q07DX003 (ip), vehicle: saline + alcohol): 323 % of control
T/C (endpoint: mean survival time, dose: 40.0 mg/kg/injection, schedule: Q01DX001 (ip), vehicle: Klucel (hydroxypropylcellulose) (HPC)): 311 % of control
T/C (endpoint: mean survival time, dose: 40.0 mg/kg/injection, schedule: Q01DX001 (ip), vehicle: other): 311 % of control
T/C (endpoint: mean survival time, dose: 45.0 mg/kg/injection, schedule: Q01DX001 (ip), vehicle: saline): 179 % of control
T/C (endpoint: mean survival time, dose: 45.0 mg/kg/injection, schedule: Q11HX001 (ip), vehicle: saline): 180 % of control
T/C (endpoint: mean survival time, dose: 50.0 mg/kg/injection, schedule: Q01DX001 (ip), vehicle: saline + alcohol): 291 % of control
T/C (endpoint: mean survival time, dose: 56.25 mg/kg/injection, schedule: Q01DX001 (ip), vehicle: saline + alcohol): 252 % of control
T/C (endpoint: mean survival time, dose: 60.0 mg/kg/injection, schedule: Q01DX001 (ip), vehicle: distilled water + alcohol): 222 % of control
T/C (endpoint: mean survival time, dose: 80.0 mg/kg/injection, schedule: Q01DX001 (ip), vehicle: saline + alcohol): 168 % of control
T/C (endpoint: median survival time, dose: 0.9 mg/kg/injection, schedule: Q01DX009 (ip), vehicle: saline + alcohol): 116 % of control and 122 % of control
T/C (endpoint: median survival time, dose: 1.75 mg/kg/injection, schedule: Q01DX009 (ip), vehicle: saline + alcohol): 156 % of control
T/C (endpoint: median survival time, dose: 1.8 mg/kg/injection, schedule: Q01DX009 (ip), vehicle: saline + alcohol): 169 % of control
T/C (endpoint: median survival time, dose: 3.0 mg/kg/injection, schedule: Q01DX009 (ip), vehicle: saline + alcohol): 172 % of control
T/C (endpoint: median survival time, dose: 3.5 mg/kg/injection, schedule: Q01DX009 (ip), vehicle: saline + alcohol): 182 % of control and 241 % of control and 246 % of control
T/C (endpoint: median survival time, dose: 5.0 mg/kg/injection, schedule: Q04DX003 (ip), vehicle: saline + alcohol): 152 % of control
T/C (endpoint: median survival time, dose: 6.0 mg/kg/injection, schedule: Q01DX009 (ip), vehicle: saline + alcohol): 256 % of control
T/C (endpoint: median survival time, dose: 7.0 mg/kg/injection, schedule: Q01DX009 (ip), vehicle: saline + alcohol): 218 % of control and 259 % of control
T/C (endpoint: median survival time, dose: 8.0 mg/kg/injection, schedule: Q01DX001 (ip), vehicle: saline + alcohol): 153 % of control
T/C (endpoint: median survival time, dose: 10.0 mg/kg/injection, schedule: Q01DX001 (ip), vehicle: Klucel (hydroxypropylcellulose) (HPC)): 171 % of control and 197 % of control
T/C (endpoint: median survival time, dose: 10.0 mg/kg/injection, schedule: Q01DX001 (ip), vehicle: saline + alcohol): 156 % of control and 178 % of control
T/C (endpoint: median survival time, dose: 10.0 mg/kg/injection, schedule: Q01DX009 (ip), vehicle: saline): 176 % of control
T/C (endpoint: median survival time, dose: 10.0 mg/kg/injection, schedule: Q03DX003 (ip), vehicle: DMSO): 294 % of control
T/C (endpoint: median survival time, dose: 10.0 mg/kg/injection, schedule: Q04DX003 (ip), vehicle: saline + alcohol): 188 % of control
T/C (endpoint: median survival time, dose: 11.5 mg/kg/injection, schedule: Q01DX001 (ip), vehicle: saline + alcohol): 165 % of control
T/C (endpoint: median survival time, dose: 12.0 mg/kg/injection, schedule: Q01DX009 (ip), vehicle: saline + alcohol): 168 % of control
T/C (endpoint: median survival time, dose: 14.0 mg/kg/injection, schedule: Q01DX009 (ip), vehicle: saline + alcohol): 158 % of control and 162 % of control and 185 % of control
T/C (endpoint: median survival time, dose: 14.0 mg/kg/injection, schedule: Q07DX003 (ip), vehicle: saline + alcohol): 273 % of control
T/C (endpoint: median survival time, dose: 14.4 mg/kg/injection, schedule: Q01DX001 (ip), vehicle: saline + alcohol): 152 % of control and 157 % of control
T/C (endpoint: median survival time, dose: 15.0 mg/kg/injection, schedule: Q01DX009 (ip), vehicle: saline): 164 % of control
T/C (endpoint: median survival time, dose: 16.0 mg/kg/injection, schedule: Q01DX001 (ip), vehicle: saline + alcohol): 255 % of control
T/C (endpoint: median survival time, dose: 19.2 mg/kg/injection, schedule: Q01DX001 (ip), vehicle: saline + alcohol): 192 % of control
T/C (endpoint: median survival time, dose: 20.0 mg/kg/injection, schedule: Q01DX001 (ip), vehicle: Klucel (hydroxypropylcellulose) (HPC)): 226 % of control and 234 % of control
T/C (endpoint: median survival time, dose: 24.0 mg/kg/injection, schedule: Q01DX001 (ip), vehicle: saline + alcohol): 152 % of control and 186 % of control
T/C (endpoint: median survival time, dose: 24.0 mg/kg/injection, schedule: Q01DX009 (ip), vehicle: saline + alcohol): 124 % of control
T/C (endpoint: median survival time, dose: 32.0 mg/kg/injection, schedule: Q01DX001 (ip), vehicle: saline + alcohol): 186 % of control
T/C (endpoint: median survival time, dose: 40.0 mg/kg/injection, schedule: Q01DX001 (ip), vehicle: Klucel (hydroxypropylcellulose) (HPC)): 343 % of control
T/C (endpoint: median survival time, dose: 40.0 mg/kg/injection, schedule: Q04DX003 (ip), vehicle: saline + alcohol): 164 % of control
T/C (endpoint: median survival time, dose: 66.7 mg/kg/injection, schedule: Q01DX001 (ip), vehicle: saline + alcohol): 179 % of control and 184 % of control
T/C (endpoint: median survival time, dose: 80.0 mg/kg/injection, schedule: Q01DX001 (ip), vehicle: Klucel (hydroxypropylcellulose) (HPC)): 117 % of control
T/C (endpoint: median survival time, dose: 80.0 mg/kg/injection, schedule: Q01DX001 (ip), vehicle: saline): 123 % of control
T/C (endpoint: median survival time, dose: 160.0 mg/kg/injection, schedule: Q01DX001 (ip), vehicle: Klucel (hydroxypropylcellulose) (HPC)): 168 % of control

CC/C=C(/CC)C1CCCCC1C (stereo not given)
T/C (endpoint: mean survival time, dose: 50.0 mg/kg/injection, schedule: Q01DX009 (ip), vehicle: saline with Tween-80): 87 % of control
T/C (endpoint: mean survival time, dose: 100.0 mg/kg/injection, schedule: Q01DX009 (ip), vehicle: saline with Tween-80): 96 % of control
T/C (endpoint: mean survival time, dose: 200.0 mg/kg/injection, schedule: Q01DX009 (ip), vehicle: saline with Tween-80): 96 % of control

Source: PubChem BioAssay AID256 (DTP/NCI, 2004)
